# Reference: BindingDB's records for doi:10.7270/Q25D8Q92 (Burnham Center For Chemical Genomics, 2011)
# Molecular target: T1, Bcl-2-related protein A1 (Mus musculus, UniProt Q07440)
# T1 sequence (Q07440 whole entry): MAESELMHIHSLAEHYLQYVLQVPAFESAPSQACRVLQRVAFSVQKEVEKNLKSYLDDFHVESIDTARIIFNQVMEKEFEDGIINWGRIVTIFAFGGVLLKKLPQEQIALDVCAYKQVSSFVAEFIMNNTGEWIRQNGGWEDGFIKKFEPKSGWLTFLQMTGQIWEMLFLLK
# Assay: Bfl-1 inhibitors in counterscreen, dose response, biochemical (AID 504689)
row,Compound,IC50 [µM]
1,CCN(CC)CCOC(=O)c1ccc(N=CC(C#N)c2nc(-c3ccc(OC)c(OC)c3)cs2)cc1 (stereo not given) [SMR000434079],3.44
2,C#CCOCCOCCOCCNc1nc(N2CCN(C(=O)CCCCCCCCCCNC(=O)[C@H]([C@@H](C)CC)n3cc(CCCCN=C(N)N)nn3)CC2)nc(N2CCN(C(=O)CCCCCCCCCCNC(=O)[C@H](CCCCN)n3cc(C)nn3)CC2)n1 [RI-GK],8.52
3,C#CCOCCOCCOCCNc1nc(N2CCN(C(=O)CCCCCCCCCCNC(=O)[C@H](CCCCN)n3cc(CCO)nn3)CC2)nc(N2CCN(C(=O)CCCCCCCCCCNC(=O)[C@H](CCCCN)n3cc(CCCC(=O)O)nn3)CC2)n1 [MLS002153608],> 20
4,C#CCOCCOCCOCCNc1nc(N2CCN(C(=O)CCCCCCCCCCNC(=O)Cn3cc(C[C@@H](C)O)nn3)CC2)nc(N2CCN(C(=O)CCCCCCCCCCNC(=O)[C@H](CCCN=C(N)N)n3cc(C[C@@H](C)CC)nn3)CC2)n1 [MLS002153601],10.1
5,COc1ccc2nc(C)cc(N=NCc3ccc(F)cc3)c2c1 [N-[(4-fluorophenyl)methylideneamino]-6-methoxy-2-methyl-4-quinolinamine],17
6,Cc1cccc2c1C(=NNC(N)=S)C(=O)N2C1OC(CO)C(O)C(O)C1O (stereo not given) [The compound has not trivial name.],> 20
7,CCOC(=O)c1c(C)c2c(n1C)CCCC2N=O (stereo not given) [MLS000026784],> 20
8,NC(=S)NN=C1C(=O)N(CCCl)c2ccccc21,> 20
9,C#CCOCCOCCOCCNc1nc(N2CCN(C(=O)[C@H](CCCN=C(N)N)n3cc(C(N)[C@H](C)CC)nn3)CC2)nc(N2CCN(C(=O)[C@H](CCCN=C(N)N)n3cc(C(N)[C@@H](C)CC)nn3)CC2)n1 (stereo not given in full) [MLS002473475],> 20
10,CCOC(=O)C1C(COC(=O)c2cc(OC)c(OC)c(OC)c2)=NC(=O)NC1C (stereo not given) [MLS001161811],> 20
11,C#CCOCCOCCOCCNc1nc(N2CCN(C(=O)CCCCCCCCCCNC(=O)[C@H](CCCCN)n3cc(C)nn3)CC2)nc(N2CCN(C(=O)CCCCCCCCCCNC(=O)[C@H](CCCN=C(N)N)n3cc(C[C@@H](C)CC)nn3)CC2)n1 [MLS002153614],6.58
12,COc1cc(C2c3c(-c4cccs4)n[nH]c3OC(=N)C2C#N)cc(OC)c1O (stereo not given) [SMR000275523],> 20
13,"CCN(CC)CCOC(=O)c1ccc(N=CC(C#N)c2nc(-c3cc4ccccc4oc3=O)cs2)cc1 (stereo not given) [2-(diethylamino)ethyl 4-[[(Z)-2-cyano-2-[4-(2-oxochromen-3-yl)-1,3-thiazol-2-yl]ethenyl]amino]benzoate]",0.55
14,CCN(CC)CCOC(=O)c1ccc(N=CC(C#N)c2nc(-c3ccc(OC)cc3)cs2)cc1 (stereo not given) [4-[[(Z)-2-cyano-2-[4-(4-methoxyphenyl)-2-thiazolyl]ethenyl]amino]benzoic acid 2-(diethylamino)ethyl ester],2.99
15,C#CCOCCOCCOCCNc1nc(N2CCN(C(=O)CCCCCCCCCCNC(=O)[C@H]([C@@H](C)CC)n3cc(CCCCCN)nn3)CC2)nc(N2CCN(C(=O)CCCCCCCCCCNC(=O)[C@H](CCCCN)n3cc(CCCC(=O)O)nn3)CC2)n1 [KI-EK],> 20
16,C#CCOCCOCCOCCNc1nc(N2CCN(C(=O)CCCCCCCCCCNC(=O)Cn3cc(CCCCCN)nn3)CC2)nc(N2CCN(C(=O)CCCCCCCCCCNC(=O)[C@H](CO)n3cc(CCCSC)nn3)CC2)n1 [MLS002153667],11.8
17,COc1ccc(CN=Nc2cc(C)nc3ccc(OC)cc23)c(OC)c1,11.4
18,C#CCOCCOCCOCCNc1nc(N2CCN(C(=O)CCCCCCCCCCNC(=O)Cn3cc(CCCCCN)nn3)CC2)nc(N2CCN(C(=O)CCCCCCCCCCNC(=O)[C@H]([C@@H](C)CC)n3cc(CCCCCN)nn3)CC2)n1 [MLS002153714],> 20
19,C#CCOCCOCCOCCNc1nc(N2CCN(C(=O)[C@H](CCCCN)n3cc([C@@H](N)C(C)CC)nn3)CC2)nc(N2CCN(C(=O)[C@H](Cc3ccc(O)cc3)n3cc([C@@H](N)C(C)CC)nn3)CC2)n1 (stereo not given in full) [SMR000391090],> 20
20,COc1cc2c3c(c1)/C(=N/NC(N)=S)C(=O)N3C(C)(C)C=C2C [MLS000807018],> 20
21,CC1CC(C)(C)N2C(=O)/C(=N\NC(N)=S)c3cccc1c32 (stereo not given) [SMR000414933],> 20
22,C#CCOCCOCCOCCNc1nc(N2CCN(C(=O)CCCCCCCCCCNC(=O)[C@H](CCCCN)n3cc(C)nn3)CC2)nc(N2CCN(C(=O)CCCCCCCCCCNC(=O)[C@@H]([C@H](C)CC)n3cc(CCCCCN)nn3)CC2)n1 [MLS002153655],8.02
23,"CC(=O)N1N=C(C2C(=O)N(C)C(=O)N(C)C2=O)CC1c1ccccc1 (stereo not given) [5-(1-acetyl-5-phenylpyrazolidin-3-ylidene)-1,3-dimethyl-1,3-diazinane-2,4,6-trione]",> 20
24,C#CCOCCOCCOCCNc1nc(N2CCN(C(=O)CCCCCCCCCCNC(=O)[C@@H](CCSC)n3cc(CCO)nn3)CC2)nc(N2CCN(C(=O)CCCCCCCCCCNC(=O)[C@H](CO)n3cc(CCCCCN)nn3)CC2)n1 [MLS002153734],> 20
25,C#CCOCCOCCOCCNc1nc(N2CCN(C(=O)[C@H](Cc3cc4ccccc4[nH]3)n3cc([C@@H](N)C(C)CC)nn3)CC2)nc(N2CCN(C(=O)[C@H](CCCCN)n3cc([C@@H](N)CC(C)C)nn3)CC2)n1 (stereo not given in full) [MLS000562581],> 20

row,Compound,IC50 [µM]
1,C#CCOCCOCCOCCNc1nc(N2CCN(C(=O)C([C@@H](C)CC)n3cc(C(N)COC(=O)C(F)(F)F)nn3)CC2)nc(N2CCN(C(=O)[C@H](CCCCN)n3cc(C(N)CC(C)C)nn3)CC2)n1 (stereo not given in full) [SMR000453712],> 20
2,C#CCOCCOCCOCCNc1nc(N2CCN(C(=O)CCCCCCCCCCNC(=O)Cn3cc(CCCCCN)nn3)CC2)nc(N2CCN(C(=O)CCCCCCCCCCNC(=O)[C@H]([C@@H](C)CC)n3cc(CCCCN=C(N)N)nn3)CC2)n1 [KG-RI],9.73
3,C#CCOCCOCCOCCNc1nc(N2CCN(C(=O)[C@H](CCCCN)n3cc([C@@H](N)CC(C)C)nn3)CC2)nc(N2CCN(C(=O)[C@H](Cc3cc4ccccc4[nH]3)n3cc([C@@H](N)Cc4ccc(O)cc4)nn3)CC2)n1 [SMR000391143],> 20
4,CCNC(=S)NNC1=c2cc(C(C)C)ccc2=NC1=O [1-ethyl-3-[(2-oxo-5-propan-2-yl-3-indolyl)amino]thiourea],> 20
5,C#CCOCCOCCOCCNc1nc(N2CCN(C(=O)CCCCCCCCCCNC(=O)[C@H]([C@@H](C)CC)n3cc(CCCCCN)nn3)CC2)nc(N2CCN(C(=O)CCCCCCCCCCNC(=O)[C@H]([C@@H](C)CC)n3cc(CCCCN=C(N)N)nn3)CC2)n1 [MLS002153718],6.1
6,C#CCOCCOCCOCCNc1nc(N2CCN(C(=O)CCCCCCCCCCNC(=O)[C@H](CCCCN)n3cc(CCO)nn3)CC2)nc(N2CCN(C(=O)CCCCCCCCCCNC(=O)[C@@H]([C@H](C)O)n3cc(C)nn3)CC2)n1 [MLS002153685],> 20
7,CC(C)NC(=S)NNC1=c2cc(C(C)C)ccc2=NC1=O [SMR000242097],> 20
8,C#CCOCCOCCOCCNc1nc(N2CCN(C(=O)CCCCCCCCCCNC(=O)Cn3cc(CCCCCN)nn3)CC2)nc(N2CCN(C(=O)CCCCCCCCCCNC(=O)Cn3cc(C[C@@H](C)O)nn3)CC2)n1 [KG-TG],> 20
9,"CCN(CC)CCOC(=O)c1ccc(N=CC(C#N)c2nc(-c3ccc4c(c3)OCO4)cs2)cc1 (stereo not given) [2-(diethylamino)ethyl 4-[[(Z)-2-[4-(1,3-benzodioxol-5-yl)-1,3-thiazol-2-yl]-2-cyano-ethenyl]amino]benzoate]",1.72
10,NC(=S)NN=C1C(=O)N(C2OC(=O)c3ccccc32)c2ccccc21 (stereo not given) [[(Z)-[2-oxo-1-(3-oxo-1H-isobenzofuran-1-yl)-3-indolylidene]amino]thiourea],> 20
11,"N=C(N)C1=CC(=O)/C(=C/C=c2ccc(=C(N)N)cc2)C=C1 [(4E)-4-[2-[4-[bis(azanyl)methylidene]cyclohexa-2,5-dien-1-ylidene]ethylidene]-3-oxidanylidene-cyclohexa-1,5-diene-1-carboximidamide;2-oxidanylethanesulfonic acid]",> 20
12,Cc1cccc(NC(=S)NNC2=c3ccccc3=NC2=O)c1,> 20
13,C#CCOCCOCCOCCNc1nc(N2CCN(C(=O)[C@H](Cc3cc4ccccc4[nH]3)n3cc([C@@H](N)CC(C)C)nn3)CC2)nc(N2CCN(C(=O)[C@H](Cc3cc4ccccc4[nH]3)n3cc([C@@H](N)CC(C)C)nn3)CC2)n1 [LW-LW],19.7
14,CCOC(=O)C1C(COC(=O)c2ncc(Cl)c(Cl)c2Cl)=NC(=O)NC1C (stereo not given),> 20
15,O=C1N=c2ccccc2=C1NNC(=S)NCC1CCCO1 (stereo not given),> 20
16,C#CCOCCOCCOCCNc1nc(N2CCN(C(=O)[C@H](Cc3cc4ccccc4[nH]3)n3cc([C@@H](N)C(C)CC)nn3)CC2)nc(N2CCN(C(=O)[C@H](Cc3cc4ccccc4[nH]3)n3cc([C@@H](N)Cc4ccc(O)cc4)nn3)CC2)n1 (stereo not given in full) [SMR000391146],11.7
17,C#CCOCCOCCOCCNc1nc(N2CCN(C(=O)[C@H](CCCCN)n3cc([C@@H](N)C(C)CC)nn3)CC2)nc(N2CCN(C(=O)[C@H](Cc3cc4ccccc4[nH]3)n3cc([C@@H](N)CC(C)C)nn3)CC2)n1 (stereo not given in full) [SMR000391070],> 20
18,Oc1c(Cc2cnc[nH]2)[nH]c(=S)n1-c1ccccc1 [MLS001163810],> 20
19,Cc1cc(C)c2c(c1)=C(NNC(=S)NCC1CCCO1)C(=O)N=2 (stereo not given),> 20
20,COCCNC(=S)NNC1=c2cc(C)cc(C)c2=NC1=O [MLS000774564],> 20
21,COC(=O)c1ccc(CN2C(=O)C(=NNC(N)=S)c3ccccc32)o1,> 20
22,C#CCOCCOCCOCCNc1nc(N2CCN(C(=O)CCCCCCCCCCNC(=O)[C@H](CCCCN)n3cc(CCCC(=O)O)nn3)CC2)nc(N2CCN(C(=O)CCCCCCCCCCNC(=O)[C@H](CCCN=C(N)N)n3cc(C[C@@H](C)CC)nn3)CC2)n1 [EK-IR],13.9
23,C#CCOCCOCCOCCNc1nc(N2CCN(C(=O)CCCCCCCCCCNC(=O)Cn3cc(CCCCCN)nn3)CC2)nc(N2CCN(C(=O)CCCCCCCCCCNC(=O)Cn3cc(CCCCCN)nn3)CC2)n1 [SMR001231146],13.3
24,O=C1Nc2ccccc2/C1=N/NC(=S)Nc1ccc(O)cc1 [1-(4-hydroxyphenyl)-3-[(2-oxidanylideneindol-3-yl)amino]thiourea],> 20
25,O=C1Nc2ccc([N+](=O)[O-])cc2C1=NNC(=S)NCC1CCCO1 (stereo not given),> 20
